Tests used:
TrkA = TrkA (Homo sapiens, UniProt P04629); assay: Inhibitory activity test for Trk kinases (γ-33P-ATP isotope test), TrkA; assay type: biochemical; conditions: 33P-ATP 10 μM, 2 h reaction; read-out: Kinase IC50 TrkA
Description: (§1) Inhibitory Activity Test for Trk Kinases
(§2) In this experiment, the γ-^33P-ATP isotope test was used to test the inhibition effect of a compound on kinases TrkA, TrkB and TrkC, and the half maximal inhibitory concentration IC50 of the inhibitory activity of the compound on the enzymes was obtained.
(§3) A compound was dissolved in 100% DMSO to a particular concentration, and then the resulting solution was gradient-diluted by an automatic loading device to different concentrations of the test samples (DMSO dissolving solutions).
(§4) 3.1. The reaction substrate was diluted using the base reaction buffer;
(§5) 3.2. The kinase was added into the substrate solution and mixed gently and uniformly;
(§6) 3.3. The compounds of different concentrations diluted in 100% DMSO were added into the kinase solution using an automatic loading system, and incubated for 20 min at room temperature;
(§7) 3.4. ^33P-ATP (10 μM, 10 μCi/μl) was added at room temperature to initiate the kinase reaction, and the reaction was carried out for 2 h.
(§8) The reaction solution was subjected to an ion exchange filtration system to remove unreacted ATP and the generated ADP ions during the reaction. Then, the radiometric quantity of ^33P isotope in the substrate was detected.
(§9) The kinase activity in the system with the addition of the inhibitors of different concentrations was calculated from the radiometric quantity, to obtain the inhibitory effect of the compounds with different concentrations on the kinase activity. Fitting was performed using graphpad prism to obtain IC50 values of the compounds for inhibition.

TrkB = TrkB (Homo sapiens, UniProt Q16620); assay: Inhibitory activity test for Trk kinases (γ-33P-ATP isotope test), TrkB; assay type: biochemical; conditions: 33P-ATP 10 μM, 2 h reaction; read-out: Kinase IC50 TrkB
Chain of TrkB (Q16620 32-822, species assumed): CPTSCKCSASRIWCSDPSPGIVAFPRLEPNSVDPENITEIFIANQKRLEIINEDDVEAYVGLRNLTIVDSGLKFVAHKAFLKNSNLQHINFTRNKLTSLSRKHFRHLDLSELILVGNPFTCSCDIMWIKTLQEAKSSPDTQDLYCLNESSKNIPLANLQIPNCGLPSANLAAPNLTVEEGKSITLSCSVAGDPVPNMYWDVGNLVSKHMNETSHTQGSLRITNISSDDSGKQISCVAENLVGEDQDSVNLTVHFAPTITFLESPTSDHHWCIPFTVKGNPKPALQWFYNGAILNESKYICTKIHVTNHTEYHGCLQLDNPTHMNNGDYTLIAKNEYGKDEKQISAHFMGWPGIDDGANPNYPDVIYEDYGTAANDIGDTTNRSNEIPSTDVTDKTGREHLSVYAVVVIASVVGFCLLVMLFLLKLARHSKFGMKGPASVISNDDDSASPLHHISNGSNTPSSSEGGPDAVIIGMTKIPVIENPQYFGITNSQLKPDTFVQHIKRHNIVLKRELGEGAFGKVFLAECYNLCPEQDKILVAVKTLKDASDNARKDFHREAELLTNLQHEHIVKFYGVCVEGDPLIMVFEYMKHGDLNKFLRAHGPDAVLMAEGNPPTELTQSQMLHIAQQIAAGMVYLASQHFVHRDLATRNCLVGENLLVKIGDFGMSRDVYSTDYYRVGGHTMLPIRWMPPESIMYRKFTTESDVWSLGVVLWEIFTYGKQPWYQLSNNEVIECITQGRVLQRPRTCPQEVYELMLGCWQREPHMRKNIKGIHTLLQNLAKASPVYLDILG
Description: as §1, §2, §3, §4, §5, §6, §7, §8, §9

TrkC = TrkC (Homo sapiens, UniProt Q16288); assay: Inhibitory activity test for Trk kinases (γ-33P-ATP isotope test), TrkC; assay type: biochemical; conditions: 33P-ATP 10 μM, 2 h reaction; read-out: Kinase IC50 TrkC
Chain of TrkC (Q16288 32-839, species assumed): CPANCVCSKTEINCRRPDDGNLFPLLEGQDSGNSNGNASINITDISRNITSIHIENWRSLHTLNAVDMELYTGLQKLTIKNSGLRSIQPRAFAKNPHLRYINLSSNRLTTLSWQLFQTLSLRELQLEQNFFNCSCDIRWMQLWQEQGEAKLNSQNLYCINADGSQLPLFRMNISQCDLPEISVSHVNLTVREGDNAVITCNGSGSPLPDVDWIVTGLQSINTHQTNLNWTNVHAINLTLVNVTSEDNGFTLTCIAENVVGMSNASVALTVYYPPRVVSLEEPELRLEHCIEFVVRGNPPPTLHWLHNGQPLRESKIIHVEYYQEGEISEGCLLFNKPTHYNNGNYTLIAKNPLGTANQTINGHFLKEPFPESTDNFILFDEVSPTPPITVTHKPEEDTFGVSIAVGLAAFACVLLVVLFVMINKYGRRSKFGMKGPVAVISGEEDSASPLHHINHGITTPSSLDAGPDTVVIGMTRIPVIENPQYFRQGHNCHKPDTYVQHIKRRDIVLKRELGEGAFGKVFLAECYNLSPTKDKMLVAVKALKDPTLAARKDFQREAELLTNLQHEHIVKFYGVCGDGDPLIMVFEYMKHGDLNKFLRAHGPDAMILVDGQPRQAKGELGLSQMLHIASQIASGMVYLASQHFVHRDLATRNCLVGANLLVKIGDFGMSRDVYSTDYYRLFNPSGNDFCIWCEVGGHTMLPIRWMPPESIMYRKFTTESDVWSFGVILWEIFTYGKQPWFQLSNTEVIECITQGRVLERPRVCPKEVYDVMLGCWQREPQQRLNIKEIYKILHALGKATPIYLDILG
Description: as §1, §2, §3, §4, §5, §6, §7, §8, §9

BaF3-tel-NTRK1 = assay: Growth inhibition test, CellTiter-Glo, tel-NTRK1-BaF3 cells; assay type: cell-based; conditions: 72 hours incubation, read-out: Cell GI50 BaF3-tel-NTRK1
Description: (§10) Growth Inhibition Test for Tel-NTRK1-BaF3 and BaF3-LMNA-NTRK1 Cells
(§11) In this experiment, the CellTiter-Glo cell proliferation fluorescence assay was used to test the growth inhibitory effect of a compound on tel-NTRK1-BaF3 and BaF3-LMNA-NTRK1 transgenic cells, and the half maximal growth inhibitory concentration GI50 of the compound on the cells was obtained.
(§12) A compound to be tested was dissolved in DMSO to formulate 10 mM of a mother solution. The mother solution was 3× diluted to 10 mM, 3.333 mM, 1.111 mM, 0.370 mM, 0.123 mM, 0.041 mM, 0.014 mM, 0.005 mM, and 0.002 mM. The prepared solutions were each stored in a 0.5 ml sterilized dorft tube (Corning, USA). In addition, an equal volume of DMSO solvent was used as a blank control. With 10 concentration gradients, the plate was stored in vacuum at −20° C.
The tel-NTRK1-BaF3 and BaF3-LMNA-NTRK1 cell lines were cultured with RPMI 1640 (Corning, N.Y., USA)+10% fetal bovine serum (Gibico, Invitrogen, USA). After the cells were thawed, they were cultured for two generations to be tested.
(§13) Logarithmic growth phase cells (2000-2500 cells/well) were inoculated in a 12×8 96-well white opaque cell culture plate (Corning 3570, NY, USA) in a volume of 100 μL per well, and a drug was added to the cell plate (0.1 μL/well) at the final concentration of the compound of 10 μM, 3.3 μM, 1.1 μM, 0.37 μM, 0.12 IM, 0.04 μM, 0.014 IM, 0.005 μM, and 0.002 μM (0.4 uL of the drug solution was added to 400 ul of the cell homogenate, and then mixed uniformly, and the resulting mixture was added at 100 ul per well). The plate was incubated at 37° C. in a 5% CO2 incubator for 72 hours, and then 20 μL CellTiter-Glo cell proliferation fluorescence assay reagent was added. The plate was allowed to stand for 10 min, and read in the Envision Plate-Reader. […]
A corresponding […] value RLU of each well was obtained by reading in the Envision Plate-reader. […]
The biochemical activity of the compounds of the present invention was determined by the above experiment, and the measured GI50 values are shown in table 2: […]

BaF3-LMNA-NTRK1 = assay: Growth inhibition test, CellTiter-Glo, BaF3-LMNA-NTRK1 cells; assay type: cell-based; conditions: 72 hours incubation, read-out: Cell GI50 BaF3-LMNA-NTRK1
Description: as §10, §11
as §12, with “In addition, an equal volume of DMSO solvent was used as a blank control. With 10 concentration gradients, the plate was stored in vacuum at −20° C.” left out
as §13, with “added.” for “added. The plate was allowed to stand for 10 min, and read in the Envision Plate-Reader.”

[1] = Metabolic stability in human liver microsomes; assay type: in vitro ADME
Description: Testing on Metabolic Stability of Compounds in Human Liver Microsomes
The total volume of an incubation system was 250 μL, and 50 mmol/L PBS buffer (pH=7.4) was used to prepare incubation solutions of liver microsomes from various species with a protein concentration of 0.5 mg/mL. Before the start of the incubation, 2.5 μL of a 100 μmol/L compound to be tested was mixed with 197.5 μL of the above incubation solution, pre-incubated in a 37° C. water bath for 5 min, and then added with a 50 μL reducing coenzyme II solution (5 mmol/L) that was likewise pre-incubated for 5 min to start the reaction (in the reaction system, the protein content of liver microsomes from various species was 0.5 g/L, and the final concentration of the compound to be tested was 1 μmol/L), incubated in a 37° C. water bath with shaking, and taken out at 0, 5, 15, 30, and 60 min. 600 μL of a methanol solution of mixed positive and negative internal standards with internal standards Terfenadine (positive ion internal standard, 25 ng/mL) and Tolbutamide (negative ion internal standard, 50 ng/mL) was immediately added to terminate the reaction. The incubation solution after termination was shaken for 2 min and centrifuged (4° C., 16000 r/min) for 10 min, and the supernatant was taken for LC-MS/MS detection to quantitatively analyze the remaining amount of the parent drug. (DMSO<0.1%).
The concentration of the compound at 0 min incubation was regarded as 100%, and the concentrations at other incubation time points were converted into the remaining percentages. The natural logarithm of the remaining percentage at each time point was linearly regressed against the incubation time, and the slope k was calculated. According to the formula T1/2=−0.693/k, the in vitro half-life was calculated. Clearance in liver microsomes (CLint (μL/min/mg protein)=Ln (2)*1000/T1/2 (min)/Protein Conc(mg/ml)).
Test data of metabolic stability of the compounds of the present invention in human liver microsomes are listed in detail in table 3: […]

Chain of TrkA (P04629 33-796, species assumed): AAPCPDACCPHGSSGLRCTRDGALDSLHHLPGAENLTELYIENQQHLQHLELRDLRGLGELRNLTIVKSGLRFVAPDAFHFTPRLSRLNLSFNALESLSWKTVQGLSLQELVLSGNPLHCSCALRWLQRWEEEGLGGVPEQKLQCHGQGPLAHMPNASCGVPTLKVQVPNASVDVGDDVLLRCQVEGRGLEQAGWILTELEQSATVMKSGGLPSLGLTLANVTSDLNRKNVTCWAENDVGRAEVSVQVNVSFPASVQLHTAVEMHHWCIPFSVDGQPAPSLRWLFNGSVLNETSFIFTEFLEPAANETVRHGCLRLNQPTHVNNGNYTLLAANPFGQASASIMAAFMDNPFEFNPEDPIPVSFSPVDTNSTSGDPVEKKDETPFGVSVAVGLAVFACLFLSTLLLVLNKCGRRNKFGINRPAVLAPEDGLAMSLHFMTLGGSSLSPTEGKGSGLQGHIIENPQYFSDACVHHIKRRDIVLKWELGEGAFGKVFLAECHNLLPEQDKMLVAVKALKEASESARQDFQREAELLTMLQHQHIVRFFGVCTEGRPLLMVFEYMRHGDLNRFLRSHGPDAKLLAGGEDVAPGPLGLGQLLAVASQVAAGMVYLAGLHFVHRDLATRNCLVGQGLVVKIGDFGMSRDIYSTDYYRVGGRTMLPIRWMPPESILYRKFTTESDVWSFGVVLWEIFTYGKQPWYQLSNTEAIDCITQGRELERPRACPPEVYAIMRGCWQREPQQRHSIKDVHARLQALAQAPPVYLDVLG

Which IC50 (TrkA) does the source give for O=C1NN(C2CC2)CCc2ncc(F)cc2[C@H]2CCCN2c2ccn3ncc1c3n2 [Example 1, (R,I^3E,I^4E)-6-cyclopropyl-3^5-fluoro-6,7-diazepine-1(5,3)-pyrazolo[1,5-a]pyrimidine-3(3,2)-pyridine-2(1,2)-pyrrolidine cyclooctane-8-one] here?
Its IC50 is 4.23 nM.

And the IC50 (TrkB)?
Its IC50 is 0.57 nM.

What about the IC50 (TrkC) of the same molecule?
The IC50 was 0.25 nM.

And the GI50 (BaF3-tel-NTRK1)?
The GI50 was 12 nM.

What about the GI50 (BaF3-LMNA-NTRK1) of the same molecule?
The GI50 was 15.1 nM.

What about the “Remaining % (60 min)” value ([1]; human liver microsomes 0.5 mg/mL, compound 1 μmol/L, 37° C., 60 min) of the same molecule?
The value was 52.26%.

What about the “Negative control Remaining % (60 min)” value ([1]; human liver microsomes, negative control incubation, 60 min) of the same molecule?
The value was 98.1%.

And the half-life at 1 μmol/L ([1]; human, liver microsomes, pH 7.4)?
The half-life at 1 μmol/L was 1.11 h.

What about the microsomal CLint at 1 μmol/L ([1]; pH 7.4, human liver microsomes 0.5 mg/mL, compound 1 μmol/L, read-out: Clint (μL/min/mg protein)) of the same molecule?
The microsomal CLint at 1 μmol/L was 20.8 µL/min/mg.
